Measurements from PubChem BioAssay AID256 (DTP/NCI, 2004).
“And” between values parts separate entries of the source, which are not always exact repeats. Equal entries are not always repeated. Toxic doses and inconclusive results are not listed. How the source made its calls: active means survival T/C of 150% or more; inactive means T/C below 125% in these data.

Test system: CD2F1 mice, L1210 leukemia ip, survival T/C
Assay: NCI In Vivo Anticancer Drug Screen. Data for tumor model L1210 Leukemia (intraperitoneal) in CD2F1 (CDF1) mice
Details: endpoint: mean survival time, higher = longer survival
Method in brief: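 Transplantable tumor in mice; compound-treated vs vehicle-treated groups. Read-out = treated/control ratio of the measured endpoint.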

[1] = dose: 100.0 mg/kg/injection, schedule: Q01DX001 (ip), vehicle: saline
[2] = dose: 200.0 mg/kg/injection, schedule: Q01DX001 (ip), vehicle: saline
[3] = dose: 400.0 mg/kg/injection, schedule: Q01DX001 (ip), vehicle: saline
[4] = dose: 100.0 mg/kg/injection, schedule: Q01DX009 (ip), vehicle: saline with Tween-80
[5] = dose: 200.0 mg/kg/injection, schedule: Q01DX009 (ip), vehicle: saline with Tween-80
[6] = dose: 400.0 mg/kg/injection, schedule: Q01DX009 (ip), vehicle: saline with Tween-80
[7] = dose: 100.0 mg/kg/injection, schedule: Q01DX009 (ip), vehicle: saline sonified
[8] = dose: 100.0 mg/kg/injection, schedule: Q04DX003 (ip), vehicle: saline with Tween-80
[9] = dose: 200.0 mg/kg/injection, schedule: Q01DX009 (ip), vehicle: saline sonified
[10] = dose: 200.0 mg/kg/injection, schedule: Q04DX003 (ip), vehicle: saline with Tween-80
[11] = dose: 400.0 mg/kg/injection, schedule: Q01DX009 (ip), vehicle: saline sonified
[12] = dose: 400.0 mg/kg/injection, schedule: Q04DX003 (ip), vehicle: saline with Tween-80
[13] = dose: 100.0 mg/kg/injection, schedule: Q04DX002 (ip), vehicle: saline with Tween-80
[14] = dose: 200.0 mg/kg/injection, schedule: Q04DX002 (ip), vehicle: saline with Tween-80
[15] = dose: 400.0 mg/kg/injection, schedule: Q04DX002 (ip), vehicle: saline with Tween-80

Measured: T/C

COC(=O)CC(CC(=O)OC)N1CC=CC1
inactive: [1] 100 % of control | [2] 98 % of control | [3] 108 % of control

CCCCCCCCCCP(=O)(OCCCC)OCCCC
inactive: dose: 25.0 mg/kg/injection, schedule: Q04DX003 (ip), vehicle: saline 102 % of control | dose: 50.0 mg/kg/injection, schedule: Q04DX003 (ip), vehicle: saline 102 % of control | dose: 100.0 mg/kg/injection, schedule: Q04DX003 (ip), vehicle: saline 100 % of control

O=C1CC(CO)CN1CCc1ccccc1 (stereo not given)
inactive: [4] 96 % of control | [5] 92 % of control | [6] 95 % of control

CN1CC(O)(C(O)C(O)C(O)CO)SC1=S (stereo not given)
inactive: [7] 98 % of control | [8] 100 % of control | [9] 101 % of control | [10] 93 % of control | [11] 109 % of control | [12] 89 % of control

O=C(O)/C=C/C(=O)Nc1ccc(Cl)c(Cl)c1
inactive: dose: 6.25 mg/kg/injection, schedule: Q01DX009 (ip), vehicle: Klucel (hydroxypropylcellulose) (HPC) 93 % of control | dose: 12.5 mg/kg/injection, schedule: Q01DX009 (ip), vehicle: Klucel (hydroxypropylcellulose) (HPC) 96 % of control and 98 % of control | dose: 25.0 mg/kg/injection, schedule: Q01DX009 (ip), vehicle: Klucel (hydroxypropylcellulose) (HPC) 113 % of control and 104 % of control | dose: 50.0 mg/kg/injection, schedule: Q01DX009 (ip), vehicle: Klucel (hydroxypropylcellulose) (HPC) 114 % of control and 104 % of control and 110 % of control | dose: 100.0 mg/kg/injection, schedule: Q01DX009 (ip), vehicle: Klucel (hydroxypropylcellulose) (HPC) 104 % of control and 107 % of control and 109 % of control | dose: 200.0 mg/kg/injection, schedule: Q01DX009 (ip), vehicle: Klucel (hydroxypropylcellulose) (HPC) 98 % of control

CCOC(CNC(=O)NC1CCCCC1)OCC
inactive: [4] 113 % of control | [8] 103 % of control | [5] 104 % of control | [10] 104 % of control | [6] 108 % of control | [12] 93 % of control

CCCC(C)(C)OC(=O)c1ccc([N+](=O)[O-])cc1
inactive: [1] 96 % of control | [2] 98 % of control | [3] 100 % of control

OC1CCCCC(O)CCCC1 (stereo not given)
inactive: dose: 100.0 mg/kg/injection, schedule: Q01DX001 (ip), vehicle: saline with Tween-80 110 % of control | [13] 95 % of control | dose: 200.0 mg/kg/injection, schedule: Q01DX001 (ip), vehicle: saline with Tween-80 116 % of control | [14] 98 % of control | dose: 400.0 mg/kg/injection, schedule: Q01DX001 (ip), vehicle: saline with Tween-80 118 % of control | [15] 101 % of control

O=C(O)c1c(Cl)c(Cl)c(Cl)c(Cl)c1C(=O)O
inactive: [13] 97 % of control | [14] 101 % of control | [15] 105 % of control

CCCCS/C=C\C(=O)OCC
inactive: [13] 102 % of control | [15] 102 % of control

O=C([O-])c1ccccc1[I+]c1ccccc1
inactive: dose: 100.0 mg/kg/injection, schedule: Q01DX001 (ip), vehicle: Klucel (hydroxypropylcellulose) (HPC) 107 % of control | [7] 102 % of control | [8] 103 % of control | dose: 200.0 mg/kg/injection, schedule: Q01DX001 (ip), vehicle: Klucel (hydroxypropylcellulose) (HPC) 93 % of control | [9] 94 % of control | [10] 101 % of control | dose: 400.0 mg/kg/injection, schedule: Q01DX001 (ip), vehicle: Klucel (hydroxypropylcellulose) (HPC) 111 % of control | [11] 102 % of control | [12] 101 % of control

N=C(N)Cc1ccc(NC(=O)c2ccc(C(=O)Nc3ccc(CC(=N)N)cc3)cc2)cc1
inactive: dose: 7.2 mg/kg/injection, schedule: Q01DX009 (ip), vehicle: acetone 102 % of control | dose: 10.8 mg/kg/injection, schedule: Q01DX009 (ip), vehicle: acetone 121 % of control

CC(C(O)c1ccc(Br)cc1)C(O)(C(F)(F)F)C(F)(F)F (stereo not given)
inactive: dose: 100.0 mg/kg/injection, schedule: Q04DX003 (ip), vehicle: other 113 % of control | dose: 200.0 mg/kg/injection, schedule: Q04DX003 (ip), vehicle: other 107 % of control | dose: 400.0 mg/kg/injection, schedule: Q04DX003 (ip), vehicle: other 100 % of control
